Key:
Assay type in all cases: in vivo
Cyperus iria L. (CYPIR) = experiment: Postemergence foliar-applied herbicidal mixtures, weed control in direct seeded rice (greenhouse)
Text: (§1) Seeds or nutlets of the desired test plant species were planted in a soil matrix prepared by mixing a loam or sandy loam soil (e.g., 28.6 percent silt, 18.8 percent clay, and 52.6 percent sand, with a pH of about 5.8 and an organic matter content of about 1.8 percent) and calcareous grit in an 80 to 20 ratio. The soil matrix was contained in plastic pots with a volume of 1 quart and a surface area of 83.6 square centimeters (cm^2). When required to ensure good germination and healthy plants, a fungicide treatment and/or other chemical or physical treatment was applied. The plants were grown for 8-22 days in a greenhouse with an approximate 14 h photoperiod which was maintained at about 29° C. during the day and 26° C. during the night. Nutrients (Peters Excel® 15-5-15 5-Ca 2-Mg and iron chelate) were applied in the irrigation solution as needed and water was added on a regular basis. Supplemental lighting was provided with overhead metal halide 1000-Watt lamps as necessary. The plants were employed for testing when they reached the first through fourth true leaf stage.
(§2) Treatments consisted of the acid or esters of 4-amino-3-chloro-5-fluoro-6-(4-chloro-2-fluoro-3-methoxy-phenyl) pyridine-2-carboxylic acid (Compound A), each formulated as an SC (suspension concentrate), and various herbicidal components alone and in combination. Forms of compound A were applied on an acid equivalent basis.
(§3) Other herbicidal components were applied on an active ingredient basis and included cellulose biosynthesis-inhibiting (CBI) herbicides isoxaben formulated as Gallery® 75DF and indaziflam formulated as Specticle® 20WSP.
(§4) Treatment requirements were calculated based upon the rates being tested, the concentration of active ingredient or acid equivalent in the formulation, and a 12 mL application volume at a rate of 187 L/ha.
(§5) For treatments comprised of formulated compounds, measured amounts of compounds were placed individually in 25 mL glass vials and diluted in a volume of 1.25% (v/v) Agri-Dex® crop oil concentrated to obtain 12× stock solutions. […] Application solutions were prepared by adding an appropriate amount of each stock solution (e.g., 1 mL) and diluted to the appropriate final concentrations with the addition of 10 mL of an aqueous mixture of 1.25% (v/v) crop oil concentrate so that the final spray solutions contained 1.25+/−0.05% (v/v) crop oil concentrate.
(§6) All stock solutions and applications solutions were visually inspected for compound compatibility prior to application. Spray solutions were applied to the plant material with an overhead Mandel track sprayer equipped with a 8002E nozzles calibrated to deliver 187 L/ha over an application area of 0.503 m^2 at a spray height of 18 to 20 inches (46 to 50 cm) above average plant canopy height. Control plants were sprayed in the same manner with the solvent blank.
(§7) The treated plants and control plants were placed in a greenhouse as described above and watered by sub-irrigation to prevent wash-off of the test compounds. After approximately 3 weeks, the condition of the test plants as compared with that of the untreated plants was determined visually and scored on a scale of 0 to 100 percent where 0 corresponds to no injury or growth inhibition and 100 corresponds to complete kill.
(§8) Colby's equation was used to determine the herbicidal effects expected from the mixtures (Colby, S. R. 1967. Calculation of the synergistic and antagonistic response of herbicide combinations. Weeds 15:20-22).
(§9) The following equation was used to calculate the expected activity of mixtures containing two active ingredients, A and B: Expected=A+B−(A×B/100)
(§10) A=observed efficacy of active ingredient A at the same concentration as used in the mixture.
(§11) B=observed efficacy of active ingredient B at the same concentration as used in the mixture.

[1] = system: Leptochloa chinensis (L.) Nees (LEFCH); experiment: as above
Text: as §1, §2, §3, §4, §5, §6, §7, §8, §9, §10, §11

[2] = system: Stellaria media (L.) Vill. (STEME); experiment: Postemergence herbicidal activity of mixtures in cereal crops in the greenhouse
Experimental: (§12) Seeds of the desired test plant species were planted in Sun Gro MetroMix 306 planting mixture, which typically has a pH of 6.0 to 6.8 and an organic matter content of about 30 percent, in plastic pots with a surface area of 103.2 square centimeters (cm^2). When required to ensure good germination and healthy plants, a fungicide treatment and/or other chemical or physical treatment was applied. The plants were grown for 7-36 days in a greenhouse with an approximate 14 hour photoperiod which was maintained at about 18° C. during the day and about 17° C. during the night. Nutrients and water were added on a regular basis and supplemental lighting was provided with overhead metal halide 1000-Watt lamps as necessary. The plants were employed for testing when they reached the second or third true leaf stage.
(§13) Treatments consisted of the benzyl ester of 4-amino-3-chloro-5-fluoro-6-(4-chloro-2-fluoro-3-methoxy-phenyl)pyridine-2-carboxylic acid (Compound A), formulated as an SC, a second cereal herbicide alone and then both in combination.
(§14) Other herbicidal components were applied on an active ingredient basis and included cellulose biosynthesis inhibiting herbicides.
(§15) Measured aliquots of benzyl ester of 4-amino-3-chloro-5-fluoro-6-(4-chloro-2-fluoro-3-methoxy-phenyl)pyridine-2-carboxylic acid (Compound A) were placed in 25 milliliter (mL) glass vials and diluted in a volume of 1.25% (v/v) Agri-Dex® crop oil concentrate to obtain stock solutions. Compound requirements are based upon a 12 mL application volume at a rate of 187 liters per hectare (L/ha). Spray solutions of the second cereal herbicide and experimental compound mixtures were prepared by adding the stock solutions to the appropriate amount of dilution solution to form 12 mL spray solution with active ingredients in two- and three-way combinations. Formulated compounds were applied to the plant material with an overhead Mandel track sprayer equipped with an 8002E nozzle calibrated to deliver 187 L/ha over an application area of 0.503 square meters (m^2) at a spray height of 18 inches (46 cm) above average plant canopy. Control plants were sprayed in the same manner with the solvent blank.
as §7, with “20-22 days,” for “approximately 3 weeks,”, “control” for “untreated”, “injury” for “injury or growth inhibition”
as §8, §9, §10, §11

[3] = system: Galium aparine L. (GALAP); experiment: as above
Experimental: as §12, §13, §14, §15
as §7, with “20-22 days,” for “approximately 3 weeks,”, “control” for “untreated”, “injury” for “injury or growth inhibition”
as §8, §9, §10, §11

[4] = system: Cirsium arvense (L.) Scop. (CIRAR); experiment: as above
Experimental: as §12, §13, §14, §15
as §7, with “20-22 days,” for “approximately 3 weeks,”, “control” for “untreated”, “injury” for “injury or growth inhibition”
as §8, §9, §10, §11

[5] = system: Sinapis arvensis L. (SINAR); experiment: as above
Experimental: as §12, §13, §14, §15
as §7, with “20-22 days,” for “approximately 3 weeks,”, “control” for “untreated”, “injury” for “injury or growth inhibition”
as §8, §9, §10, §11

[6] = system: Amaranthus retroflexus L. (AMARE); experiment: as above
Experimental: as §12, §13, §14, §15
as §7, with “20-22 days,” for “approximately 3 weeks,”, “control” for “untreated”, “injury” for “injury or growth inhibition”
as §8, §9, §10, §11

[7] = system: Chenopodium album L. (CHEAL); experiment: as above
Experimental: as §12, §13, §14, §15
as §7, with “20-22 days,” for “approximately 3 weeks,”, “control” for “untreated”, “injury” for “injury or growth inhibition”
as §8, §9, §10, §11

[8] = Compound A Benzyl Ester 4.38 g ae/ha alone
[9] = Compound A Benzyl Ester 2.5 g ai/ha alone
[10] = Compound A Benzyl Ester 5 g ai/ha alone
[11] = Compound A Benzyl Ester 10 g ai/ha alone

Structure (SMILES): CCC(C)(CC)c1cc(NC(=O)c2c(OC)cccc2OC)on1 [Isoxaben, N-[3-(1-ethyl-1-methylpropyl)-5-isoxazolyl]-2,6-dimethoxybenzamide, reference compound]
- Visual Weed Control (%) - 20 DAA Obs (Cyperus iria L. (CYPIR); Isoxaben 140 g ai/ha alone): 10%
- Visual Weed Control (%) - 20 DAA Obs (Cyperus iria L. (CYPIR); Isoxaben 280 g ai/ha alone): 60%
- Visual Weed Control (%) - 20 DAA Obs (Cyperus iria L. (CYPIR); Isoxaben 560 g ai/ha alone): 50%
- Visual Weed Control (%) - 20 DAA Obs ([1]; Isoxaben 140 g ai/ha alone): 0%
- Visual Weed Control (%) - 20 DAA Obs ([1]; Isoxaben 280 g ai/ha alone): 0%
- Visual Weed Control (%) - 21 DAA Obs ([2]; Isoxaben 31.25 g ai/ha alone): 5%
- Visual Weed Control (%) - 21 DAA Obs ([2]; Isoxaben 62.5 g ai/ha alone): 5%
- Visual Weed Control (%) - 21 DAA Obs ([3]; Isoxaben 31.25 g ai/ha alone): 0%
- Visual Weed Control (%) - 21 DAA Obs ([3]; Isoxaben 62.5 g ai/ha alone): 8%
- Visual Weed Control (%) - 21 DAA Obs ([3]; Isoxaben 125 g ai/ha alone): 12%
- Visual Weed Control (%) - 21 DAA Obs ([4]; Isoxaben 31.25 g ai/ha alone): 3%
- Visual Weed Control (%) - 21 DAA Obs ([4]; Isoxaben 62.5 g ai/ha alone): 13%
- Visual Weed Control (%) - 21 DAA Obs ([4]; Isoxaben 125 g ai/ha alone): 17%
- Visual Weed Control (%) - 21 DAA SINAR Obs ([5]; Isoxaben 31.25 g ai/ha alone): 13%
- Visual Weed Control (%) - 21 DAA SINAR Obs ([5]; Isoxaben 62.5 g ai/ha alone): 13%
- Visual Weed Control (%) - 21 DAA AMARE Obs ([6]; Isoxaben 31.25 g ai/ha alone): 0%
- Visual Weed Control (%) - 21 DAA AMARE Obs ([6]; Isoxaben 62.5 g ai/ha alone): 8%
- Visual Weed Control (%) - 21 DAA CHEAL Obs ([7]; Isoxaben 31.25 g ai/ha alone): 5%
- Visual Weed Control (%) - 21 DAA CHEAL Obs ([7]; Isoxaben 62.5 g ai/ha alone): 5%

Structure (SMILES): COc1c(Cl)ccc(-c2nc(C(=O)OCc3ccccc3)c(Cl)c(N)c2F)c1F [Compound A Benzyl Ester, benzyl ester of 4-amino-3-chloro-5-fluoro-6-(4-chloro-2-fluoro-3-methoxy-phenyl)pyridine-2-carboxylic acid]
- Visual Weed Control (%) - 20 DAA Obs (Cyperus iria L. (CYPIR); [8]): 70%
- Visual Weed Control (%) - 21 DAA Obs [1, 8]: 30%
- Visual Weed Control (%) - 21 DAA Obs ([1]; Compound A Benzyl Ester 8.75 g ae/ha alone): 35%
- Visual Weed Control (%) - 21 DAA Obs ([1]; Compound A Benzyl Ester 17.5 g ae/ha alone): 35%
- Visual Weed Control (%) - 21 DAA Obs [2, 9]: 25%
- Visual Weed Control (%) - 21 DAA Obs [2, 10]: 25%
- Visual Weed Control (%) - 21 DAA Obs [2, 11]: 27%
- Visual Weed Control (%) - 21 DAA Obs [3, 9]: 55%
- Visual Weed Control (%) - 21 DAA Obs [3, 10]: 66%
- Visual Weed Control (%) - 21 DAA Obs [3, 11]: 77%
- Visual Weed Control (%) - 21 DAA Obs [4, 10]: 39%
- Visual Weed Control (%) - 21 DAA Obs [4, 11]: 60%
- Visual Weed Control (%) - 21 DAA SINAR Obs [5, 9]: 70%
- Visual Weed Control (%) - 21 DAA SINAR Obs [5, 10]: 73%
- Visual Weed Control (%) - 21 DAA AMARE Obs [6, 9]: 20%
- Visual Weed Control (%) - 21 DAA AMARE Obs [6, 10]: 38%
- Visual Weed Control (%) - 21 DAA CHEAL Obs [7, 9]: 50%
- Visual Weed Control (%) - 21 DAA CHEAL Obs [7, 10]: 58%
